Nine compounds from patent US20050228020A1, “Beta secretase inhibitors” (priority 2000, published 2005) can be followed below.

Counter-ions that a name gives are not always drawn.

T1 sequence (P56817 with tags, fused parts or gaps): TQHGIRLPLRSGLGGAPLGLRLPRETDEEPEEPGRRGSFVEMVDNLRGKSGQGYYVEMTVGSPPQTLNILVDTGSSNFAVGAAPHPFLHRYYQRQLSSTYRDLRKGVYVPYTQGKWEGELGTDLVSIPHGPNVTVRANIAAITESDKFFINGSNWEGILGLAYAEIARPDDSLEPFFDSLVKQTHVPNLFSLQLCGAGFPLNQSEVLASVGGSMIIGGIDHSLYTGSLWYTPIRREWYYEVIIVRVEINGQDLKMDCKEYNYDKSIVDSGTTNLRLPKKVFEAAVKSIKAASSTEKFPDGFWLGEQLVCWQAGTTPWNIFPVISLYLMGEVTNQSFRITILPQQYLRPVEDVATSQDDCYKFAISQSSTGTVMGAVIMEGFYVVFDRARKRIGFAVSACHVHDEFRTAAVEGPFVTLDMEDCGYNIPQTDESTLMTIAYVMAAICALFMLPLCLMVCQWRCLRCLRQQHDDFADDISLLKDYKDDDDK

The first assay addresses T1, recombinant human β secretase (Homo sapiens, UniProt P56817).
T1 construct: made in house; host or cells: COS7 cells transfected with pBACE2; membrane fraction solubilised with octyl-β-glucoside, purified with anti-Flag antibody
Kind of assay: Measurement of inhibitory activity on β secretase (fluorogenic peptide substrate cleavage). The class given is biochemical. As to conditions: pH 4.5. The source says: The PCR product was subjected to agarose gel electrophoresis, and about a 700-b DNA fragment was recovered. The fragment was cloned with a Zero Blunt TOPO PCR Cloning Kit (Invitrogen). The resultant plasmid was digested with restriction enzymes APaI (Takara Shuzo) and KpnI (Takara Shuzo) and then subjected to agarose gel electrophoresis to recover about a 250-b DNA fragment. […] These DNA fragments were mixed with an animal cell expression plasmid pcDNA3.1 (−) (Funakoshi) digested with API and KpnI, then ligated by use of Ligation High (Toyobo), and used to transform E. coli JM109 competent cells (Takara Shuzo) to give plasmid pBACE1. […] The PCR product was subjected to agarose gel electrophoresis, and about a 170-b DNA fragment was recovered. The fragment was cloned with a Zero Blunt TOPO PCR Cloning Kit (Invitrogen). The resultant plasmid was digested with restriction enzymes APaI (Takara Shuzo) and BbeI (Takara Shuzo) and then subjected to agarose gel electrophoresis, to recover about a 120-b DNA fragment. pBACE1 was digested with the same enzymes and subjected to agarose gel electrophoresis to recover about a 1.1-kb DNA fragment. Further, pBACE1 was digested with APaI and subjected to agarose gel electrophoresis to recover about a 5.7-kb DNA fragment. These 3 fragments were ligated by use of Ligation High (Toyobo), and used to transform E. coli JM109 competent cells (Takara Shuzo) to give plasmid pBACE2.
15 μg of Human β secretase expression plasmid pBACE2 and 45 μl of Fugene 6 (Roche Diagnostics) were allowed to stand in 1.5 ml D-MEM medium for 15 minutes at room temperature, and this mixture was added to COS7 cells previously grown in D-MEM medium (Nikken Seibutsu Igaku Kenkyusho) containing 10% fetal bovine serum (LifeTech Oriental) in a Tissue culture flask 150 ml (Becton, Dickinson & Co). […] The disrupted solution was centrifuged (500 g, 10 minutes), the supernatant was ultracentrifuged (100,000 g, 45 minutes), and the precipitates were lyzed (4° C., 2.5 hours) with 0.5 ml lyzing buffer (0.01 M Tris-HCl (pH 8), 0.05 M octyl-β-glucoside, 1 mM EDTA, 0.5 mM PMSF) and then ultracentrifuged (100,000 g, 45 minutes). The supernatant was purified with 100 μl anti-Flag antibody (Sigma).
Usually IC50 stands for the midpoint of a concentration-inhibition curve. As to `c1ccc(-c2ccc(COc3ccc4c(c3)CCC(CCN3CCCCC3)C4)cc2)cc1` (stereo not drawn) [F], the concentration for half-maximal inhibition (IC50) worked out at 349 nM.

The assay is the same for the next values; noted with them: substrate Nma-Ser-Glu-Val-Asn-Leu-Asp-Ala-Glu-Lys(Dnp)-Arg-Arg-NH2; 0.05 M acetate buffer pH 4.5; 37° C. for 22 hours; fluorescence 325/460.
`CN(C)CC[C@@H]1CCc2cc(OCc3ccc(-c4ccccc4)cc3)ccc2C1` [Compound A, (R)-(+)-6-(4-Biphenylyl)methoxy-2-[2-(N,N-dimethylamino)ethyl]tetralin hydrochloride·1H2O]: the half-inhibitory concentration (IC50) is 2930 nM.
In the case of `CNCCC1CCc2cc(OCc3ccc(-c4ccccc4)cc3)ccc2C1` (stereo not drawn) [Compound C], the IC50 was 1290 nM.
Same read-out and setting: the result for `CCN(C)CCC1CCc2cc(OCc3ccc(-c4ccccc4)cc3)ccc2C1` (stereo not drawn) [D] reads 945 nM; that for `c1ccc(-c2ccc(COc3ccc4c(c3)CCC(CCN3CCCC3)C4)cc2)cc1` (stereo not drawn) [E], 1120 nM; that for `c1ccc(-c2ccc(COc3ccc4c(c3)CCC(CCn3ccnc3)C4)cc2)cc1` (stereo not drawn) [G], 856 nM.
Regarding `C[N+](C)([O-])CCC1CCc2cc(OCc3ccc(-c4ccccc4)cc3)ccc2C1` (stereo not drawn) [H], the IC50 came out at 616 nM.
In the case of `NCCC1CCc2cc(OCc3ccc(-c4ccccc4)cc3)ccc2C1` (stereo not drawn) [I], the half-inhibitory concentration (IC50) was 1050 nM.
Same read-out and setting: the result for `Cc1ccc(-c2ccc(COc3ccc4c(c3)CC[C@@H](CCN(C)C)C4)cc2)cc1` [J] reads 857 nM.
